Assay results taken from ChEMBL document CHEMBL5512685, “Discovery of a Promising CBP/p300 Degrader XYD129 for the Treatment of Acute Myeloid Leukemia” (J Med Chem, 2024).
Values belong to the compound of their own block, whether it stands above or below them. Calls of active or inactive are those of the source. The rule behind the calls is not given here.

Tests used:
[1] = target: T1, Protein cereblon/CREB-binding protein (Homo sapiens) (UniProt Q92793+Q96SW2); experiment: PROTAC activity at CRBN/CBP in human MOLM16 cells assessed as induction of CBP degradation at 333 nM incubated for 24 hrs by Western blot analysis relative to control; format: cell-based
[2] = target: T1, Protein cereblon/CREB-binding protein (Homo sapiens); experiment: In vivo PROTAC activity at CRBN/CBP in NOD-SCID mouse xenografted with human MOLM16 cells assessed as reduction in CBP level in tumor at 30 mg/kg, ip administered once daily for 2 weeks and measured 1 day post last dose by Western blot analysis; format: functional, organism-based; conditions: time 15.0 day
[3] = target: T1, Protein cereblon/CREB-binding protein (Homo sapiens); experiment: PROTAC activity at CRBN/CBP in human MOLM16 cells assessed as induction of CBP degradation at 500 nM by Western blot analysis; format: cell-based; conditions: time 0-24 hrs, TDE = time-dependent effect
KG-1 = experiment: Antiproliferative activity against human KG-1 cells assessed as inhibition of cell growth incubated for 72 hrs by celltiter glo luminescence analysis; format: functional, cell-based; conditions: KG-1, 72 h
[4] = target: T2, Protein cereblon/Histone acetyltransferase p300 (Homo sapiens) (UniProt Q09472+Q96SW2); experiment: Binding affinity to biotinylated CRBN (40 to 442 residues) (unknown origin)/His6-fused human p300 bromodomain (A1040 to G1161 residues) assessed as ternary complex formation incubated for 1.5 hrs by Alphascreen assay; format: protein assay
[5] = target: T1, Protein cereblon/CREB-binding protein (Homo sapiens); experiment: PROTAC activity at CRBN/CBP in human MOLM16 cells assessed as reduction in CBP protein level at 500 nM pretreated with MG-132 for 2 hrs followed by compound treatment and measured after 18 hrs by Western blot analysis; format: cell-based
[6] = target: T3, Histone acetyltransferase p300 (Homo sapiens, UniProt Q09472); experiment: Inhibition of C-terminal biotinylated tetra-acetylated histone peptide H4 binding to His6-fused human p300 bromodomain (A1040 to G1161 residues) incubated for 1 hrs by HTRF assay
Protein cereblon = Protein cereblon (Homo sapiens, UniProt Q96SW2); experiment: Inhibition of biotinylated thalidomide binding to CRBN (40 to 442 residues) (unknown origin) incubated for 1 hrs by HTRF assay
[7] = target: T1, Protein cereblon/CREB-binding protein (Homo sapiens); experiment: Binding affinity to biotinylated CRBN (40 to 442 residues) (unknown origin)/His6-fused human CBP bromodomain (R1081 to G1197 residues) assessed as ternary complex formation incubated for 1.5 hrs by Alphascreen assay; format: protein assay
[8] = Toxicity in NOD-SCID mouse xenografted with human MOLM16 cells assessed as pathological changes in spleen at 30 mg/kg, ip administered once daily for 2 weeks by H and E staining based analysis; format: organism-based; conditions: in vivo, 336 h
[9] = target: T1, Protein cereblon/CREB-binding protein (Homo sapiens); experiment: PROTAC activity at CRBN/CBP in human MOLM16 cells assessed as reduction in CBP protein level at 500 nM measured after 18 hrs by Western blot analysis; format: cell-based
[10] = Antitumor activity against human MOLM16 cells xenografted in NOD-SCID mouse assessed as tumor growth inhibition at 30 mg/kg, ip administered once daily for 2 weeks and measured every other day by caliper method relative to control; format: functional, MOLM-16; conditions: MOLM16, 336 h, read-out: TGI
[11] = Toxicity in NOD-SCID mouse xenografted with human MOLM16 cells assessed as reduction in body weight at 30 mg/kg, ip administered once daily for 2 weeks; format: organism-based; conditions: in vivo, 336 h
[12] = target: T2, Protein cereblon/Histone acetyltransferase p300 (Homo sapiens); experiment: PROTAC activity at CRBN/p300 in human MOLM16 cells assessed as reduction in p300 protein level at 500 nM pretreated with MG-132 for 2 hrs followed by compound treatment and measured after 18 hrs by Western blot analysis; format: cell-based
[13] = target: T2, Protein cereblon/Histone acetyltransferase p300 (Homo sapiens); experiment: PROTAC activity at CRBN/p300 in human MOLM16 cells assessed as reduction in p300 protein level at 500 nM pretreated with pomalidomide for 2 hrs followed by compound treatment and measured after 18 hrs by Western blot analysis; format: cell-based
[14] = target: T1, Protein cereblon/CREB-binding protein (Homo sapiens); experiment: PROTAC activity at CRBN/CBP in human MOLM16 cells assessed as induction of CBP degradation incubated for 24 hrs by Western blot analysis; format: cell-based; conditions: dose 0-1000 nM
[15] = target: T2, Protein cereblon/Histone acetyltransferase p300 (Homo sapiens); experiment: PROTAC activity at CRBN/p300 in human MOLM16 cells assessed as reduction in p300 protein level at 500 nM measured after 18 hrs by Western blot analysis; format: cell-based
[16] = Toxicity in NOD-SCID mouse xenografted with human MOLM16 cells assessed as pathological changes in liver at 30 mg/kg, ip administered once daily for 2 weeks by H and E staining based analysis; format: organism-based; conditions: in vivo, 336 h
[17] = Toxicity in NOD-SCID mouse xenografted with human MOLM16 cells assessed as pathological changes in lung at 30 mg/kg, ip administered once daily for 2 weeks by H and E staining based analysis; format: organism-based; conditions: in vivo, 336 h
[18] = Toxicity in NOD-SCID mouse xenografted with human MOLM16 cells assessed as pathological changes in kidney at 30 mg/kg, ip administered once daily for 2 weeks by H and E staining based analysis; format: organism-based; conditions: in vivo, 336 h
CREB-binding protein [19] = target: T4, CREB-binding protein (Homo sapiens, UniProt Q92793); experiment: Inhibition of C-terminal biotinylated tetra-acetylated histone peptide H4 binding to His6-fused human CBP bromodomain (R1081 to G1197 residues) incubated for 1 hrs by HTRF assay
MV4-11 [20] = experiment: Antiproliferative activity against human MV4-11 cells assessed as inhibition of cell growth incubated for 120 hrs by celltiter glo luminescence analysis; format: functional, cell-based; conditions: MV4-11, 120 h
[21] = target: T2, Protein cereblon/Histone acetyltransferase p300 (Homo sapiens); experiment: PROTAC activity at CRBN/p300 in human MOLM16 cells assessed as induction of p300 degradation at 500 nM by Western blot analysis; format: cell-based; conditions: time 0-24 hrs, TDE = time-dependent effect
[22] = target: T2, Protein cereblon/Histone acetyltransferase p300 (Homo sapiens); experiment: PROTAC activity at CRBN/p300 in human MOLM16 cells assessed as induction of p300 degradation incubated for 24 hrs by Western blot analysis; format: cell-based; conditions: dose 0-1000 nM
MV4-11 [23] = experiment: Potency index, ratio of Y08207 IC50 to test compound IC50 for antiproliferative activity against human MV4-11 cells assessed as inhibition of cell growth incubated for 120 hrs by celltiter glo luminescence analysis; format: functional
[24] = Toxicity in NOD-SCID mouse xenografted with human MOLM16 cells assessed as pathological changes in heart at 30 mg/kg, ip administered once daily for 2 weeks by H and E staining based analysis; format: organism-based; conditions: in vivo, 336 h
[25] = target: T1, Protein cereblon/CREB-binding protein (Homo sapiens); experiment: PROTAC activity at CRBN/CBP in human MOLM16 cells assessed as reduction in CBP protein level at 500 nM pretreated with pomalidomide for 2 hrs followed by compound treatment and measured after 18 hrs by Western blot analysis; format: cell-based
Mus musculus = experiment: In vivo PROTAC activity at CRBN/p300 in NOD-SCID mouse xenografted with human MOLM16 cells assessed as reduction in p300 level in tumor at 30 mg/kg, ip administered once daily for 2 weeks and measured 1 day post last dose by Western blot analysis; format: functional, organism-based; conditions: time 15.0 day
[26] = target: T2, Protein cereblon/Histone acetyltransferase p300 (Homo sapiens); experiment: PROTAC activity at CRBN/p300 in human MOLM16 cells assessed as induction of p300 degradation at 333 nM incubated for 24 hrs by Western blot analysis relative to control; format: cell-based
[27] = Antiproliferative activity against human MOLM16 cells assessed as inhibition of cell growth incubated for 72 hrs by celltiter glo luminescence analysis; format: functional, cell-based, MOLM-16; conditions: MOLM16, 72 h
[28] = Cytotoxicity against human HL7702 cells assessed as inhibition of cell growth incubated for 72 hrs by celltiter glo luminescence analysis; format: toxicity, cell-based; conditions: HL7702 (L02) cells
[29] = target: T3, Histone acetyltransferase p300; experiment: Inhibition of p300 (unknown origin) using histone H3 (1 to 21 residues) as substrate preincubated for 15 mins followed by substrate and [3H]Ac-CoA addition and measured after 60 mins by liquid scintillation counting analysis
CREB-binding protein [30] = target: T4, CREB-binding protein; experiment: Inhibition of CBP (unknown origin) using histone H3 (1 to 21 residues) as substrate preincubated for 15 mins followed by substrate and [3H]Ac-CoA addition and measured after 60 mins by liquid scintillation counting analysis

Activity [1]: 100%
Activity [2]: Active
Activity [3]: Tde
Activity [4]: Active
Activity [5]: inactive
IC50 [6]: 30 nM
IC50 (Protein cereblon): 180 nM
Activity [7]: Active
Activity [9]: Active
Activity [12]: inactive
Activity [13]: inactive
Activity [14]: Dose-Dependent Effect
Activity [15]: Active
IC50 (CREB-binding protein [19]): 21 nM
IC50 (MV4-11 [20]): 44 nM
Activity [21]: Tde
Activity [22]: Dose-Dependent Effect
Activity [25]: inactive
Activity [26]: 100%
Structure (SMILES): CC(=O)c1cc(C(=O)Nc2cc(CO)cc(-c3cnn(C)c3)c2F)c2cc(OCC(=O)NCCCCNc3cccc4c3C(=O)N(C3CCC(=O)NC3=O)C4=O)ccn12 (stereo not drawn)
IC50 (KG-1): 570 nM
Activity [8]: Non-Toxic
inhibition in vivo at 30 mg/kg [10]: 60%
Activity [11]: Non-Toxic
Activity [16]: Non-Toxic
Activity [17]: Non-Toxic
Activity [18]: Non-Toxic
Ratio IC50 (MV4-11 [23]): 140
Activity [24]: Non-Toxic
Activity (Mus musculus): Active
IC50 [27]: 7 nM
IC50 at 72 h [28]: > 100000 nM

IC50 [29]: 0.5 nM
IC50 (CREB-binding protein [30]): 11 nM
Structure (SMILES): CNC(=O)Nc1ccc2c(c1)CC[C@@]21OC(=O)N(CC(=O)N2Cc3cc(F)ccc3OC[C@H]2C2CC2)C1=O
